# Results as given in ChEMBL document CHEMBL4411299, “A class of novel tubulin polymerization inhibitors exert effective anti-tumor activity via mitotic catastrophe” (Eur J Med Chem, 2019).
# The source made the active and inactive calls. The calls are words filed in the database; no cut-off is given here.
# How the values were obtained:
# [1] = system: HepG2; assay: Antiproliferative activity against human HepG2 cells after 48 hrs by MTT assay; format: functional; details: HepG2, 48 h
# [2] = system: A549; assay: Antiproliferative activity against human A549 cells after 48 hrs by MTT assay; format: functional; details: A549, 48 h
# [3] = system: HT-29; assay: Antiproliferative activity against human HT-29 cells after 48 hrs by MTT assay; format: functional; details: HT-29, 48 h
# [4] = system: HeLa; assay: Antiproliferative activity against human HeLa cells after 48 hrs by MTT assay; format: functional
# [5] = system: MDA-MB-231; assay: Antiproliferative activity against human MDA-MB-231 cells after 48 hrs by MTT assay; format: functional; details: MDA-MB-231, 48 h
# [6] = system: A2780; assay: Antiproliferative activity against human A2780 cells after 48 hrs by MTT assay; format: functional; details: A2780, 48 h
# [7] = system: HeLa; assay: Induction of apoptosis in human HeLa cells assessed as viable cells at 0.05 uM after 24 hrs by Annexin V-FITC/propidium iodide staining-based flow cytometric analysis (reference value: 92.8%); format: functional; details: read-out: Activity
# [8] = system: HeLa; assay: Induction of apoptosis in human HeLa cells assessed as early apoptotic cells at 0.05 uM after 24 hrs by Annexin V-FITC/propidium iodide staining-based flow cytometric analysis (reference value: 3.65%); format: functional
# [9] = system: HeLa; assay: Induction of apoptosis in human HeLa cells assessed as late apoptotic cells at 0.05 uM after 24 hrs by Annexin V-FITC/propidium iodide staining-based flow cytometric analysis (reference value: 3.51%); format: functional
# [10] = system: HeLa; assay: Induction of apoptosis in human HeLa cells assessed as necrotic cells at 0.05 uM after 24 hrs by Annexin V-FITC/propidium iodide staining-based flow cytometric analysis (reference value: 0.05%); format: functional
# [11] = system: HeLa; assay: Antitumor activity against human HeLa cells xenografted in nude mouse assessed as tumor growth inhibition at 10 mg/kg, iv administered every other day up to 20 days relative to control; format: functional; details: 480 h, read-out: TGI
# [12] = system: HeLa; assay: Antitumor activity against human HeLa cells xenografted in nude mouse assessed as tumor weight at 10 mg/kg, iv administered every other day up to 20 days (reference value: 1.014 +/- 0.116g); format: functional
# [13] = system: HeLa; assay: Inhibition of colony formation in human HeLa cells after 2 weeks by crystal violet staining-based assay; format: functional, cell-based
# [14] = system: HeLa; assay: Induction of apoptosis in human HeLa cells assessed as viable cells at 0.2 uM after 24 hrs by Annexin V-FITC/propidium iodide staining-based flow cytometric analysis (reference value: 92.8%); format: functional; details: read-out: Activity
# [15] = system: HeLa; assay: Induction of apoptosis in human HeLa cells assessed as early apoptotic cells at 0.2 uM after 24 hrs by Annexin V-FITC/propidium iodide staining-based flow cytometric analysis (reference value: 3.65%); format: functional
# [16] = system: HeLa; assay: Induction of apoptosis in human HeLa cells assessed as late apoptotic cells at 0.2 uM after 24 hrs by Annexin V-FITC/propidium iodide staining-based flow cytometric analysis (reference value: 3.51%); format: functional
# [17] = system: HeLa; assay: Induction of apoptosis in human HeLa cells assessed as necrotic cells at 0.2 uM after 24 hrs by Annexin V-FITC/propidium iodide staining-based flow cytometric analysis (reference value: 0.05%); format: functional
# [18] = system: HeLa; assay: Induction of apoptosis in human HeLa cells assessed as viable cells at 0.4 uM after 24 hrs by Annexin V-FITC/propidium iodide staining-based flow cytometric analysis (reference value: 92.8%); format: functional; details: read-out: Activity
# [19] = system: HeLa; assay: Induction of apoptosis in human HeLa cells assessed as early apoptotic cells at 0.4 uM after 24 hrs by Annexin V-FITC/propidium iodide staining-based flow cytometric analysis (reference value: 3.65%); format: functional
# [20] = system: HeLa; assay: Induction of apoptosis in human HeLa cells assessed as late apoptotic cells at 0.4 uM after 24 hrs by Annexin V-FITC/propidium iodide staining-based flow cytometric analysis (reference value: 3.51%); format: functional
# [21] = system: HeLa; assay: Induction of apoptosis in human HeLa cells assessed as necrotic cells at 0.4 uM after 24 hrs by Annexin V-FITC/propidium iodide staining-based flow cytometric analysis (reference value: 0.05%); format: functional
# [22] = system: HeLa; assay: Cell cycle arrest in human HeLa cells assessed as accumulation of cells at G2/M phase at 0.1 to 2 uM after 6 to 24 hrs by propidium iodide staining-based flow cytometric analysis; format: functional
# [23] = biological target: T1, Tubulin (Homo sapiens) (UniProt P68371+Q9H4B7+P0DPH7+P68366+Q13509+Q71U36+P04350+Q3ZCM7+P07437+P68363+Q9BQE3+Q6PEY2+Q13885+Q9BVA1+Q9BUF5); assay: Induction of tubulin polymerization in human HeLa cells assessed as increase in density of microtubule polymerization at 0.05 after 12 hrs by DAPI staining-based confocal fluorescence microscopic analysis; format: cell-based
# [24] = biological target: T1, Tubulin (Homo sapiens); assay: Induction of tubulin polymerization in human HeLa cells assessed as induction of long thick microtubule bundles at 0.05 after 12 hrs by DAPI staining-based confocal fluorescence microscopic analysis; format: cell-based
GI50 [1] [µM],GI50 [2] [µM],GI50 [3] [µM],GI50 [4] [µM],GI50 [5] [µM],GI50 [6] [µM],Compound,also measured
7.49,5.88,> 10,3.49,10.6,> 10,COC(=O)N1N=C(c2ccccc2)CC1c1c(OC)cc(OC)cc1OC (stereo unspecified),
9.15,7.32,10.7,5.48,8.94,29.9,COC(=O)N1N=C(c2ccccc2)CC1c1ccc(OC)c(OC)c1 (stereo unspecified),
0.65,3.17,1.35,1.97,0.74,0.81,COC(=O)N1N=C(c2cccc(O)c2)CC1c1cc(OC)c(OC)c(OC)c1 (stereo unspecified),
5.95,6.68,8.92,8.23,5.61,6.72,CCOC(=O)N1N=C(c2ccccc2)CC1c1cc(OC)c(OC)c(OC)c1 (stereo unspecified),
1.87,2.59,1.3,1.53,0.35,2.78,COC(=O)N1N=C(c2cccc(OC)c2)CC1c1cc(OC)c(OC)c(OC)c1 (stereo unspecified),
1.24,0.34,0.14,0.16,0.11,1.54,COC(=O)N1N=C(c2cccc(Cl)c2)CC1c1cc(OC)c(OC)c(OC)c1 (stereo unspecified),inhibition [13]: Dose-dependent effect; viability at 0.2 µM [14]: 93%; Activity [15]: 3.3%; Activity [16]: 3.19%; Activity [17]: 0.481%; viability at 0.4 µM [18]: 93.1%; Activity [19]: 3.26%; Activity [20]: 3.13%; Activity [21]: 0.511%; Activity [22]: Active
6.53,5.32,14.9,2.47,> 10,> 10,COC(=O)N1N=C(c2ccccc2)CC1c1cc(OC)c(OC)cc1OC (stereo unspecified),
1.71,3.4,2.55,2.59,1.99,5,COC(=O)N1N=C(c2ccc(OC)cc2)CC1c1cc(OC)c(OC)c(OC)c1 (stereo unspecified),
3.95,2.88,6.26,2.18,1.08,2.77,COC(=O)N1N=C(c2ccccc2)CC1c1cc(OC)c(OC)c(OC)c1 (stereo unspecified),
> 10,> 10,> 10,> 10,14.4,10.8,CCCOC(=O)N1N=C(c2ccccc2)CC1c1cc(OC)c(OC)c(OC)c1 (stereo unspecified),

# Further lines, the compound ahead of its results:
Compound,GI50 [1] [µM],GI50 [2] [µM],GI50 [3] [µM],GI50 [4] [µM],GI50 [5] [µM],GI50 [6] [µM],also measured
COc1ccc(/C=C\c2cc(OC)c(OC)c(OC)c2)cc1OP(=O)([O-])[O-].[Na+].[Na+] [FOSBRETABULIN DISODIUM],0.19,0.16,0.062,0.019,0.065,0.32,viability at 0.05 µM [7]: 75.4%; Activity [8]: 18.9%; Activity [9]: 5.08%; Activity [10]: 0.6%; inhibition in vivo at 10 mg/kg [11]: 79.4%; Activity [12]: 0.187 g
COC(=O)N1N=C(c2ccccc2)CC1c1ccc(OC)c(O)c1 (stereo unspecified),9.81,8.93,3.5,7.52,14.5,4.96,
CCOC(=O)N1N=C(c2cccc(OC)c2)CC1c1cc(OC)c(OC)c(OC)c1 (stereo unspecified),5.82,5.92,7.86,4.11,9.1,7.3,
CCOC(=O)N1N=C(c2ccc(OC)cc2)CC1c1cc(OC)c(OC)c(OC)c1 (stereo unspecified),9.4,4.69,6.73,8.71,2.66,9.27,
COC(=O)N1N=C(c2ccc(OC)c(OC)c2)CC1c1cc(OC)c(OC)c(OC)c1 (stereo unspecified),4.21,3.93,9.2,3.39,9.9,11.4,
COc1ccc(C2=NN(C(=O)OCc3ccccc3)C(c3cc(OC)c(OC)c(OC)c3)C2)cc1 (stereo unspecified),> 10,> 10,> 10,> 10,> 10,> 10,
CCCOC(=O)N1N=C(c2ccc(OC)cc2)CC1c1cc(OC)c(OC)c(OC)c1 (stereo unspecified),> 10,> 10,12.7,> 10,20.4,11.7,
CCCOC(=O)N1N=C(c2cccc(OC)c2)CC1c1cc(OC)c(OC)c(OC)c1 (stereo unspecified),> 10,> 10,> 10,> 10,12.5,> 10,
COc1cccc(C2=NN(C(=O)OCc3ccccc3)C(c3cc(OC)c(OC)c(OC)c3)C2)c1 (stereo unspecified),> 10,> 10,> 10,> 10,> 10,> 10,
CCOc1cccc(C2=NN(C(=O)OC)C(c3cc(OC)c(OC)c(OC)c3)C2)c1 (stereo unspecified),8.36,5.29,4.45,4.97,0.19,0.76,
COC(=O)N1N=C(c2ccc(O)cc2)CC1c1cc(OC)c(OC)c(OC)c1 (stereo unspecified),7.82,8.57,6.77,1.14,7.15,2.52,
COC(=O)N1N=C(c2cc(OC)c(OC)c(OC)c2)CC1c1cc(OC)c(OC)c(OC)c1 (stereo unspecified),9.72,12.6,7.85,5.68,11.1,14,
CCOC(=O)N1N=C(c2cccc(O)c2)CC1c1cc(OC)c(OC)c(OC)c1 (stereo unspecified),1.79,5.12,11.6,3.28,4.71,9.75,
COc1cc(C2CC(c3ccccc3)=NN2C(=O)OCc2ccccc2)cc(OC)c1OC (stereo unspecified),> 10,> 10,> 10,> 10,> 10,> 10,
COC(=O)N1N=C(c2ccccc2)CC1c1ccccc1 (stereo unspecified),> 10,> 10,> 10,> 10,> 10,> 10,
CCCOC(=O)N1N=C(c2cccc(O)c2)CC1c1cc(OC)c(OC)c(OC)c1 (stereo unspecified),> 10,> 10,15.2,> 10,10,11.1,
CC(=O)O[C@H]1C(=O)[C@@]2(C)[C@H]([C@H](OC(=O)c3ccccc3)[C@]3(O)C[C@H](OC(=O)[C@H](O)[C@@H](NC(=O)c4ccccc4)c4ccccc4)C(C)=C1C3(C)C)[C@]1(OC(C)=O)CO[C@@H]1C[C@@H]2O,,,,,,,Activity [23]: Active; Activity [24]: Active
COC(=O)N1N=C(c2ccccc2)CC1c1ccc(OC)cc1 (stereo unspecified),12,15.3,> 10,12.7,> 10,> 10,
COc1cc(C2CC(c3cccc(O)c3)=NN2C(=O)OCc2ccccc2)cc(OC)c1OC (stereo unspecified),> 10,> 10,> 10,> 10,> 10,> 10,
